Experimental data from patent publication US20120165285A1, “COMBINED PREPARATION FOR USE AS A MEDICAMENT” (priority 2009, published 2012).

Tests used:
A2A adenosine receptor = A2A adenosine receptor (Homo sapiens, UniProt P29274); details: pH below 7.4; cited from earlier work
adenosine A2A receptor = adenosine A2A receptor (Homo sapiens, UniProt P29274); experiment: EC50 at the adenosine A2A receptor; format: biochemical
Text: For the avoidance of doubt, the EC50 value of a compound is defined herein as the concentration of the compound that provokes a receptor response halfway between the baseline receptor response and the maximum receptor response (as determined, for example, using a dose-response curve).
The EC50 value should be determined under standard conditions (balanced salt solutions buffered to pH 7.4). For EC50 determinations using isolated membranes, cells and tissues this would be in buffered salt solution at pH 7.4 (e.g. cell culture medium), for example as in Daly et al., Pharmacol. (1993) 46, 91-100), or preferably as in Tilburg et al (J. Med. Chem. (2002) 45, 91-100). The EC50 could also be determined in vivo by measuring A2A adenosine receptor mediated responses in a normal healthy animal, or even in a tissue perfused under normal conditions (i.e. oxygenated blood, or oxygenated isotonic media, also buffered at pH 7.4) in a normal healthy animal.

[1] = system: rat adjuvant model of arthritis; experiment: Rat adjuvant model of arthritis, analgesic relief; format: in vivo
[2] = system: patients suffering from diabetic neuropathy; experiment: Phase 2A clinical trial, diabetic neuropathic pain; format: in vivo, human
Method: In a Phase 2A clinical trial, patients suffering from diabetic neuropathy were administered 2-methoxyadenosine (2-MeOAd)) (7 mg 3 times per day) or a placebo over a four week period, and asked to rate their pain intensity (diabetic neuropathic pain) once per week based on an 11 point Likert Scale (0-10). The patients included some who were already being administered with a calcium channel blocker at a conventional therapeutic dose. The calcium channel blockers administered included Amlodipine (5-10 mg once per day), Verapamil, or Felodipine.
Patients in the clinical trial also completed the Short form McGill pain questionnaire (SF-MPQ) (Melzack, Pain, 1987, August; 30(2):191-7). The main component of the SF-MPQ consists of 15 descriptors (11 sensory; 4 affective) which are rated on an intensity scale as […], 1=mild, 2=moderate or 3=severe. Three pain scores are derived from the sum of the intensity rank values of the words chosen for sensory, affective and total descriptors. The SF-MPQ also includes the Present Pain Intensity (PPI) index of the standard MPQ and a visual analogue scale (VAS).

[3] = patients also administered a calcium channel blocker
[4] = with calcium channel blocker, P<0.02

adenosine A2A receptor, sequence (P29274 whole entry): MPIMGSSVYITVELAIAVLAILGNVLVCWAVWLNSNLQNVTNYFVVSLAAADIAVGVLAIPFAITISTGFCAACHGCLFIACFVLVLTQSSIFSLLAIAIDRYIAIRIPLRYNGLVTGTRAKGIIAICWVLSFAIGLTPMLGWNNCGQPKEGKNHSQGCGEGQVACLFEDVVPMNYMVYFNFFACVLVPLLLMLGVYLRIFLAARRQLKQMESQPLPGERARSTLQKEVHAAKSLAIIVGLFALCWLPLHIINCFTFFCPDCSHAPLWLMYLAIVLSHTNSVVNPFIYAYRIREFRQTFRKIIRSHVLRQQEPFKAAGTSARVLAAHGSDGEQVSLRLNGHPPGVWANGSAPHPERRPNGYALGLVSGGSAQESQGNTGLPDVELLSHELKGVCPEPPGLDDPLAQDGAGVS
A2A adenosine receptor, sequence (P29274 whole entry): as above

For `COc1nc(N)c2ncn([C@@H]3O[C@H](CO)[C@@H](O)[C@H]3O)c2n1` [2-methoxyadenosine], the “affinity for adenosine receptors at pH below pH 7.4” value (A2A adenosine receptor) is given as “increased affinity”, the EC50 (adenosine A2A receptor) is given as ~1000 nM and the “minimum plasma concentration giving maximal analgesic relief” value [1] is given as 0.06 µM. For the same compound, the “effect on 24-hour pain intensity compared with placebo” value [2, 3] was “significant effect”, the “responder rate, patients who experienced >30% pain relief” value [2, 3] was 74% and the “responder rate, patients who experienced >50% pain relief” value [2, 3] was 43%. The “median change from baseline in 24-hour pain intensity” value ([2]; patients also administered a calcium channel blocker, after 4 weeks, 7 mg 3 times per day, 11 point Likert Scale, P<0.01) was “more than −2.5”, the “effect on 24-hour pain intensity compared with placebo” value ([2]; patients not also administered a calcium channel blocker) was “no effect” and the “median change from baseline in 24-hour pain intensity, difference below placebo” value ([2]; whole patient population (with and without calcium channel blocker), Week 4, 7 mg 3 times per day, 11 point Likert Scale) was 0.7. For the same compound, the “patient global impression of change (PGIC), 7 point scale” value ([2]; with calcium channel blocker) was “favourable effect”, the “Clinical global impression of change (CGIC), 7 point scale” value [2, 4] was “reduction” and the “pain rated by the VAS (SF-MPQ)” value [2, 4] was “reduction”. For the same compound, the “SF-MPQ total pain intensity score” value ([2]; with calcium channel blocker, P<0.03) was “reduction” and the “present pain intensity (PPI, SF-MPQ)” value ([2]; with calcium channel blocker, P<0.04) was “reduction”.
